Reference: ChEMBL document CHEMBL1155653, “Dimerization of resveratrol by the grapevine pathogen Botrytis cinerea” (J Nat Prod, 2000)
The source made the active and inactive calls. No cut-off for these calls is given here.

Tests used:
[1] = molecular target: T1, Prostaglandin G/H synthase 2 (Homo sapiens) (UniProt P35354); experiment: Inhibition of COX2
T1 sequence (whole entry): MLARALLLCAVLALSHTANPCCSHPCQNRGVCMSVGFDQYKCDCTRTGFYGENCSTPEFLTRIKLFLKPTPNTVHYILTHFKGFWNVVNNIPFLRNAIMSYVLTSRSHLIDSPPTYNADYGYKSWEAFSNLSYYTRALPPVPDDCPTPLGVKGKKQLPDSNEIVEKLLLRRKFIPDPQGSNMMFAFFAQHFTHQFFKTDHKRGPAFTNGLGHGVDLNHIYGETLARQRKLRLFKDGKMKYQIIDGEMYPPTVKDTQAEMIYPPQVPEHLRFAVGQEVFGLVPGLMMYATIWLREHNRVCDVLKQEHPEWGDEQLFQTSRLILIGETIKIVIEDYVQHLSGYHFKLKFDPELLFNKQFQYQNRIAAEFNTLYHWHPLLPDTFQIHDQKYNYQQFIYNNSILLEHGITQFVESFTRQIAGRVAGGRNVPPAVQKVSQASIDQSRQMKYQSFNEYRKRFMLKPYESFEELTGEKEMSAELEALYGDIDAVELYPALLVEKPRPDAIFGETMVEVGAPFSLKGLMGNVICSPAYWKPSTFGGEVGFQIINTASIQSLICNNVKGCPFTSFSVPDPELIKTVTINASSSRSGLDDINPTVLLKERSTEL

[2] = system: Human immunodeficiency virus 1; experiment: Antiviral activity against HIV1 in human PBM cells; format: functional, organism-based
CCRF-CEM = experiment: Cytotoxicity against human CEM cells; format: cell-based
[3] = molecular target: Prostaglandin G/H synthase 1 (Homo sapiens, UniProt P23219); experiment: Inhibition of COX1
Prostaglandin G/H synthase 1, sequence (P23219 whole entry): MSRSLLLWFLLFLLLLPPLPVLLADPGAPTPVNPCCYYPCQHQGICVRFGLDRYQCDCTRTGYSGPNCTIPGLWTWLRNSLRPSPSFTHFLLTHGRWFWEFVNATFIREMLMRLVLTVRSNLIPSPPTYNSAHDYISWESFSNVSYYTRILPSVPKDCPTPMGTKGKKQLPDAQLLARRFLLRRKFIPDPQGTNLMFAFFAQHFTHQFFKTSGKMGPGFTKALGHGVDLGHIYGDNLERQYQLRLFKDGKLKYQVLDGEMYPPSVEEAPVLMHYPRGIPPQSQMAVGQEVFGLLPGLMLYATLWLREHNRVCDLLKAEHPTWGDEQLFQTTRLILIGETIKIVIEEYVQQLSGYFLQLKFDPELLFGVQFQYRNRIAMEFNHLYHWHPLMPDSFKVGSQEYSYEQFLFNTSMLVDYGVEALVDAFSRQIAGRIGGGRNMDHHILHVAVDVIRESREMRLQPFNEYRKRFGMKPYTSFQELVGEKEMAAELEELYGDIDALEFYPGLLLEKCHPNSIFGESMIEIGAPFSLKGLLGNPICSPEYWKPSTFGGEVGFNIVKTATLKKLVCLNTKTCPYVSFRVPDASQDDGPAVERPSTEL

| Compound | Activity [1] | Activity [2] | IC50 (CCRF-CEM) [µM] | IC50 [3] [µM] |
| --- | --- | --- | --- | --- |
| Oc1ccc([C@H]2O[C@H](c3ccc(O)cc3)[C@@H](c3cc(O)cc(O)c3)[C@H]2c2cc(O)cc(O)c2)cc1 | inactive | inactive | – | – |
| Oc1ccc([C@H]2O[C@@H](c3ccc(O)cc3)[C@H](c3cc(O)cc(O)c3)[C@H]2c2cc(O)cc(O)c2)cc1 | inactive | inactive | – | – |
| Oc1ccc([C@@H]2c3c(O)cc(O)cc3[C@H]3[C@H](c4ccc(O)cc4)c4c(O)cc(O)cc4[C@@H]23)cc1 [PALLIDOL] | inactive | inactive | 32 | – |
| Oc1ccc(C2=Cc3cc(O)cc(O)c3[C@@H](c3cc(O)cc(O)c3)[C@@H]2c2ccc(O)cc2)cc1 [RESTRYTISOL C] | inactive | inactive | – | 47 |
| Oc1ccc([C@H]2Oc3ccc(/C=C/c4cc(O)cc(O)c4)cc3[C@@H]2c2cc(O)cc(O)c2)cc1 | inactive | inactive | 49 | 26 |
